The text below walks through data of patent publication US7351389B2, “Aminocarboxylate ligands having substituted aromatic amide moieties” (Bracco International B.V., priority 1991, dated 2008).

The conditions of series [1]: chelating a paramagnetic ion, e.g., Gd; cited from earlier work.
The conditions of series [2]: chelating a paramagnetic ion, e.g., Gd; cited from earlier work. This is another data set of the same source.
Series [3] is described as follows: T1 relaxivity of gadolinium complexes (IBM Minispec spin analyzer). In kind it is physicochemical. The settings on record: Gd(L) complex, 20 MHz, 39±1° C.; for T1 Relaxivity: aqueous solutions, 0.1-5 mM Gd. As for the experimental part: The T1 relaxivity was measured for nine prior art gadolinium complexes (1-9) as compared to novel gadolinium complexes using the ligands of Examples 1, 2 and 3 (#10, 11 and 12, respectively, in the Table below). Relaxivity was measured on an IBM Minispec spin analyzer operating at 20 MHz and 39±1° C. Aqueous solutions were used in 0.1-5 mM Gd concentration range.

On to `O=C(O)CN1CCN(CC(=O)O)CCN(CC(=O)Nc2ccccc2)CCN(CC(=O)O)CC1`, for which, in series [1], the water solubility entry is “poor water solubility”. The relaxivity result in series [2] was “acceptable relaxivity”. As for “10-[2-[[3,5-Bis[[(2,3-dihydroxypropyl)amino]-carbonyl]phenyl]amino]-2-oxoethyl]-1,4,7,10-tetraazacyclododecane-1,4,7-triacetic acid, monogadolinium complex [HAA-DO3A]”, in series [3], the “relaxivity (comparison in words of Table 1)” value is on record as “especially high” and the T1 Relaxivity worked out at 5.8 mM⁻¹ s⁻¹. Consider “10-[2-[[3,5-Bis[[(2-methylbutyl)amino]carbonyl]-phenyl]amino]2-oxoethyl]1,4,7,10-tetraazacyclododecane-1,4,7-triacetic acid, monogadolinium complex [AAA-DO3A]”, for which, in series [3], the “relaxivity (comparison in words of Table 1)” value is recorded as “especially high” and the T1 Relaxivity was 5.9 mM⁻¹ s⁻¹.

`O=C(O)CN(CCN(CC(=O)O)CC(=O)O)CCN(CC(=O)O)CC(=O)O` (Gd complex, metal not drawn) [DTPA, diethylenetriaminepentaacetic acid, reference compound] yielded a T1 Relaxivity in series [3] of 3.7 mM⁻¹ s⁻¹.

In turn, `O=C(O)CN(CCN(CC(=O)O)C(=O)NCC(O)CO)CCN(CC(=O)O)C(=O)NCC(O)CO` (centres unmarked) (Gd complex, metal not drawn) [DTPA-HA, reference compound] gave a T1 Relaxivity in series [3] of 4.4 mM⁻¹ s⁻¹.

For the compound `O=C(O)CN1CCN(CC(=O)O)CCN(CC(=O)O)CCN(CC(=O)O)CC1` [DOTA, reference compound], the T1 Relaxivity in series [3] was determined as 3.4 mM⁻¹ s⁻¹.

Regarding `O=C(O)CN1CCN(CC(=O)O)CCN(CC(=O)Nc2cc(C(=O)NC(CO)CO)cc(C(=O)NC(CO)CO)c2)CCN(CC(=O)O)CC1` [HAS-DO3A], in series [3], the “relaxivity (comparison in words of Table 1)” value is on record as “especially high” and the T1 Relaxivity was 5.4 mM⁻¹ s⁻¹.
